For 18 compounds, IC50 results are on record in US20230151003A1, “COMPOUNDS AND METHODS OF USE” (Exelixis, Inc., priority 2020, published 2023).

Broadly, the IC50 is the concentration that gives 50% inhibition.

For one assay, the target named is T1, AXL (Homo sapiens, UniProt P30530).
T1 construct: endogenous in cells; host or cells: A-172 glioblastoma cells (ATCC #CRL-1620)
T1 sequence (P30530 26-894): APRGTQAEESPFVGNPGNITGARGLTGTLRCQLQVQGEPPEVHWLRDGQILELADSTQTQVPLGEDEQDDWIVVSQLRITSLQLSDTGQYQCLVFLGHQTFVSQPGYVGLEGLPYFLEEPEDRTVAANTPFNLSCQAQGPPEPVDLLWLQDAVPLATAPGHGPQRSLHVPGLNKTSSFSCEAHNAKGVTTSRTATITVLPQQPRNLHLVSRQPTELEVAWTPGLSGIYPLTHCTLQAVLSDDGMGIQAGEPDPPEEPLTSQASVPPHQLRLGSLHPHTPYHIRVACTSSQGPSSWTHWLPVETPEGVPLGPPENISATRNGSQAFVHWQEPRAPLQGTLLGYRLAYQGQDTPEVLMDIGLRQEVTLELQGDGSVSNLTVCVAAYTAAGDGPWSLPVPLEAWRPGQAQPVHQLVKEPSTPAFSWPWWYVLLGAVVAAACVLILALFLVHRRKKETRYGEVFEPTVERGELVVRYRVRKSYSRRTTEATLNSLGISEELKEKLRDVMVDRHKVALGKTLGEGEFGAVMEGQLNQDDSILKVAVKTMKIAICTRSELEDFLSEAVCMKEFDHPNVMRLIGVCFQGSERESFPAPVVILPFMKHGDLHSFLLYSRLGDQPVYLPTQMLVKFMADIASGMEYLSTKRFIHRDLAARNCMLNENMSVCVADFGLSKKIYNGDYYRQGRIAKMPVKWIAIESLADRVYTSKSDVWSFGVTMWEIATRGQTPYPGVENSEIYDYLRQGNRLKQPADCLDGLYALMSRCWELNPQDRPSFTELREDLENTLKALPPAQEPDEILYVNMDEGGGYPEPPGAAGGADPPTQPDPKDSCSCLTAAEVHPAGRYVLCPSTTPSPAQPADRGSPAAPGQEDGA
As to the kind of experiment: AXL autophosphorylation ELISA in A-172 cells. In kind it is cell-based. To be noted: Table 3 Cellular Activities, Gas6-stimulated, phospho-AXL ELISA. On the procedure: A-172 glioblastoma cells (ATCC #CRL-1620) were seeded at 2.5×10^5 cells/well onto 24-well plates (Greiner #662165), in DMEM (Thermo Fisher #11995-040) containing 10% FBS (Thermo Fisher #26140-079), 1% MEM NEAA (Thermo Fisher #11140-050), 1% GlutaMax (Thermo Fisher #35050-061), and 1% Penicillin Streptomycin (Thermo Fisher #15140-122). A-172 cells were incubated at 37° C., 5% CO2 for 24 h and then starved for 24 h in serum-free medium. Test compounds were serially diluted to produce an 8-point dose curve in fresh serum-free medium to a final concentration of 0.3% DMSO (vehicle) and added to the cells and incubated for 1 h. Cells were then stimulated with 1 μg/mL recombinant human Gas6 (R&D Systems #885-GSB-500) for 15 min, washed with cold PBS, and immediately lysed with 150 μL of cold 1× lysis buffer [20 mM Tris, 137 mM sodium chloride, 2 mM EDTA, 10% glycerol, 1% NP-40 alternative, 1 mM activated sodium orthovanadate, 1 mM PefaBloc SC (Sigma-Aldrich #11429868001), protease/phosphatase inhibitor tablet (Thermo Fisher #A32959)]. Lysates were collected and 100 μL/well added into the human phospho-AXL DuoSet IC ELISA (R&D Systems #DYC2228-2). Assay was performed according to manufacturer's instructions and sample phospho-AXL concentrations were extrapolated using human phospho-AXL control (R&D Systems #841645) as a standard. Positive control wells (100% activity) contained Gas6-stimulated, DMSO-treated cell lysates. Negative control wells (0% activity) contained Gas6-stimulated, reference inhibitor-treated cell lysates. IC50 values were calculated by nonlinear regression analysis using a 4-parameter logistic curve fit in ActivityBase XE (IDBS).
(An ELISA detects its analyte on a solid surface through an enzyme-linked reagent.)

A further assay addresses Met (Homo sapiens, UniProt P08581). Put plainly: Met autophosphorylation ELISA in PC-3 cells. The format is cell-based. Also on record: endogenous in cells; host or cells: PC-3 prostate cancer cells (ATCC #CRL-1435). The following applies: Table 3 Cellular Activities, HGF-stimulated, phospho-Met ELISA, read-out: c-Met IC50. The method in brief: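 IC50 derived by 4-parameter logistic regression of phospho-Met (panTyr) sandwich ELISA signal, scaled between HGF-stimulated DMSO and reference-inhibitor lysates. PC-3 cells, serum-starved 3 h, received an 8-point compound series (0.3% DMSO) for 1 h before 10 min stimulation with 100 ng/mL human HGF.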

Chain of Met (P08581 25-1390): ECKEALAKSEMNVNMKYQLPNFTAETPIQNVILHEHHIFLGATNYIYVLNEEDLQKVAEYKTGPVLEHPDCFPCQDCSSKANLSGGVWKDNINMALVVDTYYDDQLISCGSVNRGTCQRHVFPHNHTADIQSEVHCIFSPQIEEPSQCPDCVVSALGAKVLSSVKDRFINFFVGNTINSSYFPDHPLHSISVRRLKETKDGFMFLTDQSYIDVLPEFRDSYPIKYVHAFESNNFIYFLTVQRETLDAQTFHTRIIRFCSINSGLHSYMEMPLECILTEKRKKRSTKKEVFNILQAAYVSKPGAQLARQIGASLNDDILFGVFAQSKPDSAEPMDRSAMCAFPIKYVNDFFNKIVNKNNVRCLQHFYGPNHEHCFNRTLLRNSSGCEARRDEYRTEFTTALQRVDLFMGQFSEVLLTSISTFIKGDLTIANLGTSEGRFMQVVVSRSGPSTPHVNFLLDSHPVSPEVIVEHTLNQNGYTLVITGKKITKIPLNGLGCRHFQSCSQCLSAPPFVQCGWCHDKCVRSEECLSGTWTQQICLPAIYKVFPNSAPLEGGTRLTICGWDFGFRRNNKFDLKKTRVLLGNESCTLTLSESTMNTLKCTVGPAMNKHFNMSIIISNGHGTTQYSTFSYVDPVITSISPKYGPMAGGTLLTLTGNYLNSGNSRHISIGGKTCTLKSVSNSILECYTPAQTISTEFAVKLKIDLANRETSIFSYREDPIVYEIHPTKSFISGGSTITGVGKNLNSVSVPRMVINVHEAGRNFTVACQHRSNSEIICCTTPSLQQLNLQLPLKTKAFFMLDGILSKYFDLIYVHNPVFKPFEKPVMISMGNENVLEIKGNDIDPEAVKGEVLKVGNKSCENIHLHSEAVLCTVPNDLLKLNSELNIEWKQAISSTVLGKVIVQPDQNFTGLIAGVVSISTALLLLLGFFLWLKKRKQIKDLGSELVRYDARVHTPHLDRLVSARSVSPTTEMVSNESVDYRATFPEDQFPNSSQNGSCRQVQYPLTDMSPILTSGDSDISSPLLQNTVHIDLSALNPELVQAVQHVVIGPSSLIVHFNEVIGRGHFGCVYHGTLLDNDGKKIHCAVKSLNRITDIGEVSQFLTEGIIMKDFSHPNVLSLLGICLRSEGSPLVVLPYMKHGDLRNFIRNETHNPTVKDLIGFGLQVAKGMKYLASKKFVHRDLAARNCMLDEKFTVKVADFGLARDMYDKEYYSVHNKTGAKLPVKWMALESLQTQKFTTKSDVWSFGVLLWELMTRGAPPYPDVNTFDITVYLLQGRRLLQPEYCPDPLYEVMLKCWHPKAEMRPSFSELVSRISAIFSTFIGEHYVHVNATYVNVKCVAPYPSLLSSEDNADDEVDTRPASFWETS

As to `COCCOc1cc2nccc(Oc3ccc(NC(=O)c4c(C)n(C)c(C)c(-c5ccco5)c4=O)cc3F)c2nc1OC` [Compound 254, N-[3-Fluoro-4-[[6-methoxy-7-(2-methoxyethoxy)-1,5-naphthyridin-4-yl]oxy]phenyl]-5-(furan-2-yl)-1,2,6-trimethyl-4-oxopyridine-3-carboxamide], the IC50 at AXL and at Met was at most 100 nM throughout.

For the compound `COc1cc2nccc(Oc3ccc(NC(=O)c4ccc(C)n(-c5ncc(F)cc5C)c4=O)cc3F)c2nc1OC` [Compound 51, N-[4-[(6,7-Dimethoxy-1,5-naphthyridin-4-yl)oxy]-3-fluorophenyl]-1-(5-fluoro-3-methylpyridin-2-yl)-6-methyl-2-oxopyridine-3-carboxamide], the half-maximal inhibitory concentration (IC50) on AXL and at Met was at most 100 nM each time.

`COc1cc2nccc(Oc3ccc(NC(=O)c4cccn(-c5ccc(F)cn5)c4=O)cc3F)c2nc1OC` [Compound 42, N-[4-[(6,7-Dimethoxy-1,5-naphthyridin-4-yl)oxy]-3-fluorophenyl]-1-(5-fluoropyridin-2-yl)-2-oxopyridine-3-carboxamide]: the half-maximal inhibitory concentration (IC50) at AXL and on Met was at most 100 nM each time.

`COc1cc2nccc(Oc3ccc(NC(=O)c4cn(C)c(C)c(-c5ccc(F)cn5)c4=O)cc3)c2nc1OC` [Compound 86, N-[4-[(6,7-Dimethoxy-1,5-naphthyridin-4-yl)oxy]phenyl]-5-(5-fluoropyridin-2-yl)-1,6-dimethyl-4-oxopyridine-3-carboxamide]: the IC50 against AXL and at Met was at most 100 nM throughout.

`COc1cc2nccc(Oc3ccc(NC(=O)c4c5n(cc(-c6cc(C)cs6)c4=O)CCOC5)cc3F)c2nc1OC` [Compound 302, N-[4-[(6,7-Dimethoxy-1,5-naphthyridin-4-yl)oxy]-3-fluorophenyl]-7-(4-methylthiophen-2-yl)-8-oxo-3,4-dihydro-1H-pyrido[2,1-c][1,4]oxazine-9-carboxamide]: the IC50 at AXL and at Met was at most 100 nM throughout.

Regarding `COc1cc2nccc(Oc3ccc(NC(=O)c4c(C)ncc(-c5ccccn5)c4O)cc3F)c2nc1OC` [Compound 69, N-[4-[(6,7-Dimethoxy-1,5-naphthyridin-4-yl)oxy]-3-fluorophenyl]-4-hydroxy-2-methyl-5-pyridin-2-ylpyridine-3-carboxamide], the IC50 at AXL and on Met was at most 100 nM each time.

Consider `COc1cc2nccc(Oc3ccc(NC(=O)c4c5n(cc(-c6ccc(C)s6)c4=O)CCOC5)cc3)c2nc1OC` [Compound 305, N-[4-[(6,7-Dimethoxy-1,5-naphthyridin-4-yl)oxy]phenyl]-7-(5-methylthiophen-2-yl)-8-oxo-3,4-dihydro-1H-pyrido[2,1-c][1,4]oxazine-9-carboxamide], for which the concentration for half-maximal inhibition (IC50) at AXL and on Met was at most 100 nM in each case.

Take `COc1cc2nccc(Oc3ccc(NC(=O)c4ccc(C)n(-c5ccncc5)c4=O)cc3F)c2nc1OC` [Compound 221, N-[4-[(6,7-Dimethoxy-1,5-naphthyridin-4-yl)oxy]-3-fluorophenyl]-6-methyl-2-oxo-1-pyridin-4-ylpyridine-3-carboxamid]: the IC50 against AXL and on Met was at most 100 nM in each case.

For `COc1cnc2c(Oc3ccc(NC(=O)c4c(C)ncc(-c5ccccn5)c4O)cc3F)ccnc2c1` [Compound 70, N-[3-Fluoro-4-[(7-methoxy-1,5-naphthyridin-4-yl)oxy]phenyl]-4-hydroxy-2-methyl-5-pyridin-2-ylpyridine-3-carboxamide], the 50% inhibitory concentration (IC50) at AXL and on Met was at most 100 nM in each case.

For the compound `COCCOc1cc2nccc(Oc3ccc(NC(=O)c4c(C)n(C)c(C)c(-c5coc6ccccc56)c4=O)cc3F)c2nc1OC` [Compound 264, 5-(1-Benzofuran-3-yl)-N-[3-fluoro-4-[[6-methoxy-7-(2-methoxyethoxy)-1,5-naphthyridin-4-yl]oxy]phenyl]-1,2,6-trimethyl-4-oxopyridine-3-carboxamide], the IC50 against AXL and at Met was at most 100 nM each time.

For `COCCOc1cc2nccc(Oc3ccc(NC(=O)c4cnc(C)c(-c5ccco5)c4O)cc3F)c2nc1OC` [Compound 260, N-[3-Fluoro-4-[[6-methoxy-7-(2-methoxyethoxy)-1,5-naphthyridin-4-yl]oxy]phenyl]-5-(furan-2-yl)-4-hydroxy-6-methylpyridine-3-carboxamide], the IC50 at AXL and at Met was at most 100 nM throughout.

Take `COc1cc2nccc(Oc3ccc(NC(=O)c4c(C)ncc(-c5ncc(F)cc5C)c4O)cc3F)c2nc1OC` [Compound 200, N-[4-[(6,7-Dimethoxy-1,5-naphthyridin-4-yl)oxy]-3-fluorophenyl]-5-(5-fluoro-3-methylpyridin-2-yl)-4-hydroxy-2-methylpyridine-3-carboxamide]: the IC50 on AXL and at Met was at most 100 nM throughout.

`COc1cc2nccc(Oc3ccc(NC(=O)c4c(C)n(C)cc(-c5ccc(F)cn5)c4=O)cc3)c2nc1OC` [Compound 72, N-[4-[(6,7-Dimethoxy-1,5-naphthyridin-4-yl)oxy]phenyl]-5-(5-fluoropyridin-2-yl)-1,2-dimethyl-4-oxopyridine-3-carboxamide]: the IC50 against AXL and at Met was at most 100 nM in each case.

Turning to `COc1cc2nccc(Oc3ccc(NC(=O)c4c5n(cc(-c6cc(C)cs6)c4=O)CCOC5)cc3)c2nc1OC` [Compound 303, N-[4-[(6,7-Dimethoxy-1,5-naphthyridin-4-yl)oxy]phenyl]-7-(4-methylthiophen-2-yl)-8-oxo-3,4-dihydro-1H-pyrido[2,1-c][1,4]oxazine-9-carboxamide], the IC50 was at most 100 nM at AXL and 100 to 300 nM on Met.

As for `COc1cc2nccc(Oc3ccc(NC(=O)c4cnc(C)c(-c5cccs5)c4O)cc3)c2nc1OC` [Compound 256, N-[4-[(6,7-Dimethoxy-1,5-naphthyridin-4-yl)oxy]phenyl]-4-hydroxy-6-methyl-5-thiophen-2-ylpyridine-3-carboxamide], the IC50 against AXL and on Met was at most 100 nM in each case.

For the compound `COc1cc2nccc(Oc3ccc(NC(=O)c4c(C)ccn(-c5ccc(F)cn5)c4=O)cc3F)c2nc1OC` [Compound 41, N-[4-[(6,7-Dimethoxy-1,5-naphthyridin-4-yl)oxy]-3-fluorophenyl]-1-(5-fluoropyridin-2-yl)-4-methyl-2-oxopyridine-3-carboxamide], the IC50 at AXL and at Met was at most 100 nM each time.

In the case of `COc1cc2nccc(Oc3ccc(NC(=O)c4cnc(C)c(-c5ccc(F)cn5)c4O)cc3F)c2nc1OC` [Compound 85, N-[4-[(6,7-Dimethoxy-1,5-naphthyridin-4-yl)oxy]-3-fluorophenyl]-5-(5-fluoropyridin-2-yl)-4-hydroxy-6-methylpyridine-3-carboxamide], the IC50 against AXL and on Met was at most 100 nM throughout.

Take `COc1cc2nccc(Oc3ccc(NC(=O)c4c5n(cc(-c6ccco6)c4=O)CCOC5)cc3F)c2nc1OC` [Compound 297, N-[4-[(6,7-Dimethoxy-1,5-naphthyridin-4-yl)oxy]-3-fluorophenyl]-7-(furan-2-yl)-8-oxo-3,4-dihydro-1H-pyrido[2,1-c][1,4]oxazine-9-carboxamide]: the IC50 against AXL and at Met was at most 100 nM throughout.
